{"source": "patent US10487068B2", "about": "“Pyridazine derivatives as RORc modulators” (Genentech, Inc., priority 2015, dated 2019)"}
{"target": "T1, RORc ligand binding domain (Homo sapiens, UniProt P51449)", "T1 sequence (P51449 269-508 limits assumed)": "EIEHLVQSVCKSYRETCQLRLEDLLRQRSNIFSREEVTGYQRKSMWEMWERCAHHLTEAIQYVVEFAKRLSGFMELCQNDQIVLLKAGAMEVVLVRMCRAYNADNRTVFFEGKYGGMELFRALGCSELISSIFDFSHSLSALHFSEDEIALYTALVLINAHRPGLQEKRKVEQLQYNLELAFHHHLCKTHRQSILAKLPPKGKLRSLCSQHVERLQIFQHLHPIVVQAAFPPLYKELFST", "experiment": "In Vitro RORc Ligand Binding Assay", "conditions": "RORc IC50, radioligand 25-[3H]hydroxycholesterol 6 nM; 0.6 ug/mL RORc receptor; 3 h at 25° C.", "units": {"IC50": "nM"}}
{"smiles": "Cc1nc(-c2cncc([C@@]34CC[C@@H](c5cc(-c6c(F)cccc6F)nnc53)C4(C)C)n2)co1", "note": "[Example 120, 4-(6-((5R,8S)-3-(2,6-difluorophenyl)-9,9-dimethyl-5,6,7,8-tetrahydro-5,8-methanocinnolin-8-yl)pyrazin-2-yl)-2-methyloxazole]", "IC50": 8.6}
{"smiles": "CC1(C)[C@H]2CC[C@]1(c1cncc(-c3nnc(CO)[nH]3)n1)c1nnc(-c3c(F)cccc3F)cc12", "note": "[Example 121, (5-(6-((5R,8S)-3-(2,6-difluorophenyl)-9,9-dimethyl-5,6,7,8-tetrahydro-5,8-methanocinnolin-8-yl)pyrazin-2-yl)-4H-1,2,4-triazol-3-yl)methanol]", "IC50": 27.2}
{"smiles": "CC1(C)[C@H]2CC[C@]1(c1ccnc(NC(CO)CO)n1)c1nnc(-c3c(F)cccc3F)cc12", "note": "[Example 122]", "IC50": 38.6}
{"smiles": "CC1(C)[C@H]2CC[C@]1(c1cncc(-c3n[nH]c(=O)[nH]3)n1)c1nnc(-c3c(F)cccc3F)cc12", "note": "[Example 123, 3-(6-((5R,8S)-3-(2,6-difluorophenyl)-9,9-dimethyl-5,6,7,8-tetrahydro-5,8-methanocinnolin-8-yl)pyrazin-2-yl)-1H-1,2,4-triazol-5(4H)-one]", "IC50": 32.5}
{"smiles": "CC1(C)[C@H]2CC[C@]1(c1cncc(C(=O)NCC3(O)CC3)n1)c1nnc(-c3c(F)cccc3F)cc12", "note": "[Example 124, 6-((5R,8S)-3-(2,6-difluorophenyl)-9,9-dimethyl-5,6,7,8-tetrahydro-5,8-methanocinnolin-8-yl)-N-((1-hydroxycyclopropyl)methyl)pyrazine-2-carboxamide]", "IC50": 50.8}
{"smiles": "CC1(C)[C@H]2CC[C@]1(c1cncc(-c3noc(=O)[nH]3)n1)c1nnc(-c3c(F)cccc3F)cc12", "note": "[Example 125, 3-(6-((5R,8S)-3-(2,6-difluorophenyl)-9,9-dimethyl-5,6,7,8-tetrahydro-5,8-methanocinnolin-8-yl)pyrazin-2-yl)-1,2,4-oxadiazol-5(4H)-one]", "IC50": 20.9}
{"smiles": "C[C@H](O)CNC(=O)c1cncc([C@@]23CC[C@@H](c4cc(-c5ccccc5F)nnc42)C3(C)C)n1", "note": "[Example 126, 6-((5R,8S)-3-(2-fluorophenyl)-9,9-dimethyl-5,6,7,8-tetrahydro-5,8-methanocinnolin-8-yl)-N-((S)-2-hydroxypropyl)pyrazine-2-carboxamide]", "IC50": 45.6}
{"smiles": "CC1(C)[C@H]2CC[C@]1(c1cnnc(N)n1)c1nnc(-c3c(F)cccc3F)cc12", "note": "[Example 127, 5-((5R,8S)-3-(2,6-difluorophenyl)-9,9-dimethyl-5,6,7,8-tetrahydro-5,8-methanocinnolin-8-yl)-1,2,4-triazin-3-amine]", "IC50": 109}
{"smiles": "CC(C)(O)c1cncc([C@@]23CC[C@@H](c4cc(-c5c(F)cccc5F)nnc42)C3(C)C)n1", "note": "[Example 128, 2-(6-((5R,8S)-3-(2,6-difluorophenyl)-9,9-dimethyl-5,6,7,8-tetrahydro-5,8-methanocinnolin-8-yl)pyraizn-2-yl)propan-2-ol]", "IC50": 21.5}
{"smiles": "CC1(C)[C@H]2CC[C@]1(c1cncc(CNC(=O)CO)n1)c1nnc(-c3c(F)cccc3F)cc12", "note": "[Example 129, N-((6-((5R,8S)-3-(2,6-difluorophenyl)-9,9-dimethyl-5,6,7,8-tetrahydro-5,8-methanocinnolin-8-yl)pyrazin-2-yl)methyl)-2-hydroxyacetamide]", "IC50": 56.7}
{"smiles": "CC1(C)[C@H]2CC[C@]1(c1cccc(C(=O)NC(CO)CO)n1)c1nnc(-c3c(F)cccc3F)cc12", "note": "[Example 130, 6-((5R,8S)-3-(2,6-difluorophenyl)-9,9-dimethyl-5,6,7,8-tetrahydro-5,8-methanocinnolin-8-yl)-N-(1,3-dihydroxypropan-2-yl)picolinamide]", "IC50": 55.3}
{"smiles": "CC1(C)[C@H]2CC[C@]1(c1cccc(C(=O)NCC3(O)COC3)n1)c1nnc(-c3c(F)cccc3F)cc12", "note": "[Example 131, 6-((5R,8S)-3-(2,6-difluorophenyl)-9,9-dimethyl-5,6,7,8-tetrahydro-5,8-methanocinnolin-8-yl)-N-((3-hydroxyoxetan-3-yl)methyl)picolinamide]", "IC50": 44.4}
{"smiles": "CC1(C)[C@H]2CC[C@]1(c1ccnc(NCC3(O)COC3)n1)c1nnc(-c3c(F)cccc3F)cc12", "note": "[Example 132]", "IC50": 33.2}
